Measurements reported in patent US20100221709A1, “METHODS FOR IDENTIFYING AGENTS THAT MODULATE APOPTOSIS IN CELLS THAT OVER-EXPRESS A BCL-2 FAMILY MEMBER PROTEIN” (priority 2005, published 2010).

Legend:
[1] = tested on: TABX1A cells (Bcl-xL antisense); test: Cell viability by trypan blue dye exclusion; conditions: 2 μg/ml, without fructose, six hours
Text: (§1) Briefly, a DNA fragment encoding the full-length mouse Bcl-xL cDNA was isolated from the plasmid pBS-BCL-xL (Tzung et al., Am. J. Path. 150:1985-1995 (1997), incorporated herein by reference in its entirety) by digestion with the restriction endonuclease EcoRI. This EcoRI fragment was cloned into the EcoRI site of the mammalian expression vector pSFFV (Fuhlbrigge et al., Proc. Nat. Acad. Sci. USA 85:5649-5653 (1988)) in both sense and antisense orientations, to form expression plasmids pSFFV-Bc/-xL-WT(sense) or pSFFV-Bc/-xL(antisense), respectively. The tumorigenic murine hepatocyte cell line TAMH was transfected by lipofection (Lipofectamine, Life Technologies, Rockville, Md., according to the manufacturer's recommendations) with the plasmids pSFFV-neo (the control), pSFFV-Bc/-xL-WT(sense) or pSFFV-Bc/-xL(antisense). Characterization of and culture conditions for the cell lines have been previously published (Wu et al., Proc. Nat. Acad. Sci. USA 91:674-78 (1994); Wu et al., Cancer Res. 54:5964-5973 (1994)). Transfectants were selected for the acquisition of neomycin resistance by growing cells in the presence of 750 μg/ml of G418. Bulk transfectants were cloned by limiting dilution and individual clones were screened by immunoblot analysis to determine the level of Bcl-xL, protein expression as described below.
Selected transfectants were then tested for whole cell sensitivity to several apoptotic agents. Transfected cells were cultured to reach approximately 80% confluency prior to plating an equal number of cells from selected clones on 12-well tissue culture plates. The transplanted cells were treated with the following apoptotic agents: 5 μM doxorubicin for 48 hours; 5 μM cisplatin for 48 hours; or with 200 U/ml tumor necrosis factor (TNF) plus 1 μg/ml actinomycin D for 18 hours. Cell viability was determined by trypan blue dye exclusion. The percentage of viable cells was calculated by the number of viable cells (treated with a particular apoptogenic agent) divided by the number in the control group (untreated). […]

[2] = tested on: TABX2S cells (over-expressing Bcl-xL); test: in vitro
Text: as §1
Selected transfectants were then tested for whole cell sensitivity to several apoptotic agents. Transfected cells were cultured to reach approximately 80% confluency prior to plating an equal number of cells from selected clones on 12-well tissue culture plates. The transplanted cells were treated with the following apoptotic agents: 5 μM doxorubicin for 48 hours; 5 μM cisplatin for 48 hours; or with 200 U/ml tumor necrosis factor (TNF) plus 1 μg/ml actinomycin D for 18 hours. Cell viability was determined by trypan blue dye exclusion. The percentage of viable cells was calculated by the number of viable cells (treated with a particular apoptogenic agent) divided by the number in the control group (untreated).
TABX2S cells and TABX1A cells were also examined for the effects of various mitochondrial inhibitors. […] Azide was diluted from an aqueous stock solution.

Bcl-xLΔC20 = molecular target: T1, Bcl-xLΔC20 (Homo sapiens, UniProt Q07817); test: Calcein leakage from large unilamellar vesicles (pore formation); format: biochemical; conditions: 12 μM
T1 construct: poly-His (N); made in house
Experimental: The Bcl-xL protein has reversible pore-forming activity. Recombinant human Bcl-xL lacking the C-terminal 20-residue membrane anchor sequence, Bcl-xLΔC20, forms pores in large unilamellar vesicles. A reporter, calcein, can leak out of the vesicles through these pores.
Large unilamellar vesicles composed of 60% dioleoylphosphatidylcholine and 40% oleoylphosphatidylglycerol were prepared by the extrusion method of Mayer et al. (Biochim. Biophys. Acta 858:161-168 (1986)). Briefly, a dry film of lipid was resuspended in an aqueous solution containing 40 mM calcein (Molecular Probes, Eugene, Oreg.), 25 mM KCl and 10 mM HEPES (pH 7.0). […] The size of the vesicle suspension was measured by a Coulter N4 Plus-Sizer to confirm that the mean diameter of the vesicle sample was close to the expected size (100 nm). The osmolalities of all solutions were measured in a cryoscopic osmometer (Wescor Inc., Logan, Utah) and adjusted to 0.21 Osmol/kg by the addition of sodium chloride, as necessary. Lipid concentration was measured as described previously (Stewart, Anal. Biochem. 104:10-14 (1989)).
Calcein leakage was determined by adding 2-4 μg of purified Bcl-xLΔC20 (5 μg/ml, 161 nM) to a solution of 100 mM NaCl, 10 mM HEPES (pH 5.0) containing the large unilamellar vesicles (50 μM final lipid concentration) described above. […]

[3] = tested on: myeloma cell lines (RPMI-8226, U266, NCI-H929); format: cell-based, human; conditions: 5 to 20 μg/ml
Experimental: Cell survival was assayed by exclusion of propidium iodide (PI) (10 mg/ml) by unfixed cells. Annexin V-FITC (Pharmingen) or 3,3′-dihexyloxacarbocyanine iodide (DiOC6(3)) (Molecular Probes) staining was analyzed together with PI to discriminate early apoptotic cells. Apoptotic cells were also measured as sub-G1 events among ethanol-fixed cells stained with […] PI. All cell samples were analyzed using a benchtop FACSCalibur® (Becton Dickinson, San Jose, Calif.) flow cytometer. Flow data were analyzed using MultiCycle AV software (Phoenix Flow Systems). For intracellular pH measurements, cell pellets were washed once and resuspended in 2 ml of HEPES-buffered medium (no phenol red and no serum). Carboxy-SNARF®-1 acetoxymethyl (AM) ester (Molecular Probes, 1 mM stock in DMSO, stored at −20° C.), a long wavelength fluorescent pH indicator, was added to a final concentration of 10 μM, and the cells were incubated for 30 min at 37° C. Following incubation with SNARF®-1 AM, cells were sedimented and the pellets were held on ice. Immediately before analysis, pellets were resuspended in Earle's balanced salt solution (experimental buffer) or high-[K^+] buffer containing nigericin (calibration samples).

[4] = tested on: TAMH hepatocyte and RPMI-8226 myeloma cell lines; test: O2 consumption, Clark electrode; format: cell-based; conditions: 10 μM
Experimental: Respiratory rates of both cell lines were maintained through repeated additions of 10 μM 2-OMeAA, to a final concentration of 90 μM (FIG. 7A). […] The metabolic response to hypoxia is dominated by a shift to glycolytic metabolism characterized by increased rates of glucose uptake and reductive conversion of pyruvate to lactic acid. Real-time glucose consumption and lactate production by TAMH cells grown on microcarrier beads were monitored using a microsequential injection-lab on valve (μSI-LOV) system (Schulz et al., Analyst 127:1293-1298 (2002)). […] Since 2-OMeAA has no effect on cellular respiration at these concentrations, 2-OMeAA induces aerobic glycolysis in TAMH cells. The glycolytic response to 2-OMeAA was proportional to cellular Bcl-xL protein expression (FIG. 7C).

U266 myeloma cells = test: [3H]-thymidine incorporation; format: cell-based, human
Experimental: (§2) RPMI-8226 cells were grown in 96 well plates for 24 h prior to addition of 2-methoxy antimycins. Antimycin stocks in dimethyl sulfoxide (DMSO) were serially diluted in RPMI. Cells were incubated for 48 h with compounds at final compound concentrations ranging from 10^−4 to 10^−8 M. MTT cell proliferation assays were performed in quadruplicate and percent growth inhibitions were calculated as (A570 (control cells)-A570 (treated cells))/A570 (control cells). GI50 was extrapolated from semi-log plots of the dose response for each compound. […] After 72 h drug exposures, 1 μCi/ml [^3H]-thymidine was added to wells. Cells were incubated for an additional 24 h, and then transferred to GF/C filter plates (Packard) using a plate washer. Filters were dried, added to scintillant, and counted in a TopCount® scintillation counter (Packard). Drug response is expressed as the percentage of vehicle-treated controls, and each value shown is the average of three determinations.

RPMI-8226 myeloma cells = test: [3H]-thymidine incorporation; format: cell-based, human
Experimental: as §2

NCI-H929 myeloma cells = test: [3H]-thymidine incorporation; format: cell-based, human
Experimental: as §2

T1 sequence (Q07817 1-213 limits assumed, stated change not applied): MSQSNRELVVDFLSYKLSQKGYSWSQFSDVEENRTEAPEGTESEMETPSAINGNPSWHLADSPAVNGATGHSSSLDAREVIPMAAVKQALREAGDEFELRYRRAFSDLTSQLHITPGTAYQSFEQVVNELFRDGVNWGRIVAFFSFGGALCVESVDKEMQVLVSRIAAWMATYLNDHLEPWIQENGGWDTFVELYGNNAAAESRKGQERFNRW

Substance: antimycin A
- survival [1]: 87%
- time until cell death readily apparent [2]: ≤ 2 h
- Bcl-xL pore-forming activity (Bcl-xLΔC20): completely blocked
- cytotoxicity, PI exclusion [3]: sensitive
- respiration dampened by [4]: > 90%
- 50% growth inhibition (GI50) (U266 myeloma cells): 0.05 µg/mL
- 50% growth inhibition (GI50) (RPMI-8226 myeloma cells): 0.1 µg/mL
- 50% growth inhibition (GI50) (NCI-H929 myeloma cells): 0.2 µg/mL
